Measured values reported in the supplement of paper PMC10307832.

Key:
Test in all cases: relative viability (nuclei count vs DMSO), 5 days (fraction); higher = more cells survive
BEN = system: BEN
Outline: (§1)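 After 5 days of treatment, lung cancer cells in 1536-well plates were fixed and stained in a single step (final 0.05% Triton X-100, 1% formaldehyde, 1 ug/ml Hoechst) and their nuclei counted on 4× images. Treatment had been applied by pin tool the day after seeding as one drug alone or as a fixed anchor-drug dose with five library-drug doses (not always all listed) in √10 steps. Relative viability is the nuclei count of treated wells divided by that of vehicle wells, and values are medians of duplicate plates.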

ChaGo-K-1 = system: ChaGo-K-1
Outline: as §1

HCC-78 = system: HCC-78
Outline: as §1

LC-2-ad = system: LC-2-ad
Outline: as §1

LCLC-97TM1 = system: LCLC-97TM1
Outline: as §1

LK-2 = system: LK-2
Outline: as §1

LU99A = system: LU99A
Outline: as §1

LXF-289 = system: LXF-289
Outline: as §1

NCI-H1355 = system: NCI-H1355
Outline: as §1

NCI-H1651 = system: NCI-H1651
Outline: as §1

NCI-H1666 = system: NCI-H1666
Outline: as §1

NCI-H1944 = system: NCI-H1944
Outline: as §1

NCI-H1975 = system: NCI-H1975
Outline: as §1

NCI-H2087 = system: NCI-H2087
Outline: as §1

NCI-H2342 = system: NCI-H2342
Outline: as §1

NCI-H358 = system: NCI-H358
Outline: as §1

NCI-H596 = system: NCI-H596
Outline: as §1

NCI-H650 = system: NCI-H650
Outline: as §1

NCI-H661 = system: NCI-H661
Outline: as §1

NCI-H838 = system: NCI-H838
Outline: as §1

PC-3 [JPC-3] = system: PC-3 [JPC-3]
Outline: as §1

SK-MES-1 = system: SK-MES-1
Outline: as §1

## O=c1cc(N2CCOCC2)oc2c(-c3cccc4c3sc3ccccc34)cccc12 + Cc1cc(Nc2cc(N3CCN(C)CC3)nc(Sc3ccc(NC(=O)C4CC4)cc3)n2)n[nH]1 [Tozasertib] (partner 0.1 µM)
BEN; first compound 0.01 µM
  relative viability: 0.487
BEN; first compound 0.03162 µM
  relative viability: 0.469
BEN; first compound 0.1 µM
  relative viability: 0.482
BEN; first compound 0.3162 µM
  relative viability: 0.463
BEN; first compound 1 µM
  relative viability: 0.531
ChaGo-K-1; first compound 0.01 µM
  relative viability: 0.232
ChaGo-K-1; first compound 0.03162 µM
  relative viability: 0.209
ChaGo-K-1; first compound 0.1 µM
  relative viability: 0.198
ChaGo-K-1; first compound 0.3162 µM
  relative viability: 0.222
ChaGo-K-1; first compound 1 µM
  relative viability: 0.209
HCC-78; first compound 0.01 µM
  relative viability: 0.417
HCC-78; first compound 0.03162 µM
  relative viability: 0.359
HCC-78; first compound 0.1 µM
  relative viability: 0.417
HCC-78; first compound 0.3162 µM
  relative viability: 0.41
HCC-78; first compound 1 µM
  relative viability: 0.452
LC-2-ad; first compound 0.01 µM
  relative viability: 0.486
LC-2-ad; first compound 0.03162 µM
  relative viability: 0.46
LC-2-ad; first compound 0.1 µM
  relative viability: 0.478
LC-2-ad; first compound 0.3162 µM
  relative viability: 0.443
LC-2-ad; first compound 1 µM
  relative viability: 0.445
LCLC-97TM1; first compound 0.01 µM
  relative viability: 0.262
LCLC-97TM1; first compound 0.03162 µM
  relative viability: 0.246
LCLC-97TM1; first compound 0.1 µM
  relative viability: 0.28
LCLC-97TM1; first compound 0.3162 µM
  relative viability: 0.214
LCLC-97TM1; first compound 1 µM
  relative viability: 0.219
LK-2; first compound 0.01 µM
  relative viability: 0.164
LK-2; first compound 0.03162 µM
  relative viability: 0.161
LK-2; first compound 0.1 µM
  relative viability: 0.17
LK-2; first compound 0.3162 µM
  relative viability: 0.166
LK-2; first compound 1 µM
  relative viability: 0.17
LU99A; first compound 0.01 µM
  relative viability: 0.262
LU99A; first compound 0.03162 µM
  relative viability: 0.279
LU99A; first compound 0.1 µM
  relative viability: 0.273
LU99A; first compound 0.3162 µM
  relative viability: 0.303
LU99A; first compound 1 µM
  relative viability: 0.267
LXF-289; first compound 0.01 µM
  relative viability: 0.235
LXF-289; first compound 0.03162 µM
  relative viability: 0.216
LXF-289; first compound 0.1 µM
  relative viability: 0.218
LXF-289; first compound 0.3162 µM
  relative viability: 0.174
LXF-289; first compound 1 µM
  relative viability: 0.197
NCI-H1355; first compound 0.01 µM
  relative viability: 0.545
NCI-H1355; first compound 0.03162 µM
  relative viability: 0.59
NCI-H1355; first compound 0.1 µM
  relative viability: 0.552
NCI-H1355; first compound 0.3162 µM
  relative viability: 0.55
NCI-H1355; first compound 1 µM
  relative viability: 0.514
NCI-H1651; first compound 0.01 µM
  relative viability: 0.687
NCI-H1651; first compound 0.03162 µM
  relative viability: 0.848
NCI-H1651; first compound 0.1 µM
  relative viability: 0.844
NCI-H1651; first compound 0.3162 µM
  relative viability: 0.72
NCI-H1651; first compound 1 µM
  relative viability: 0.751
NCI-H1666; first compound 0.01 µM
  relative viability: 0.512
NCI-H1666; first compound 0.03162 µM
  relative viability: 0.56
NCI-H1666; first compound 0.1 µM
  relative viability: 0.579
NCI-H1666; first compound 0.3162 µM
  relative viability: 0.596
NCI-H1666; first compound 1 µM
  relative viability: 0.567
NCI-H1944; first compound 0.01 µM
  relative viability: 0.246
NCI-H1944; first compound 0.03162 µM
  relative viability: 0.249
NCI-H1944; first compound 0.1 µM
  relative viability: 0.241
NCI-H1944; first compound 0.3162 µM
  relative viability: 0.245
NCI-H1944; first compound 1 µM
  relative viability: 0.244
NCI-H1975; first compound 0.01 µM
  relative viability: 0.692
NCI-H1975; first compound 0.03162 µM
  relative viability: 0.657
NCI-H1975; first compound 0.1 µM
  relative viability: 0.958
NCI-H1975; first compound 0.3162 µM
  relative viability: 0.746
NCI-H1975; first compound 1 µM
  relative viability: 0.76
NCI-H2087; first compound 0.01 µM
  relative viability: 0.289
NCI-H2087; first compound 0.03162 µM
  relative viability: 0.247
NCI-H2087; first compound 0.1 µM
  relative viability: 0.297
NCI-H2087; first compound 0.3162 µM
  relative viability: 0.226
NCI-H2087; first compound 1 µM
  relative viability: 0.25
NCI-H2342; first compound 0.01 µM
  relative viability: 0.643
NCI-H2342; first compound 0.03162 µM
  relative viability: 0.504
NCI-H2342; first compound 0.1 µM
  relative viability: 0.535
NCI-H2342; first compound 0.3162 µM
  relative viability: 0.555
NCI-H2342; first compound 1 µM
  relative viability: 0.469
NCI-H358; first compound 0.01 µM
  relative viability: 0.113
NCI-H358; first compound 0.03162 µM
  relative viability: 0.102
NCI-H358; first compound 0.1 µM
  relative viability: 0.115
NCI-H358; first compound 0.3162 µM
  relative viability: 0.0946
NCI-H358; first compound 1 µM
  relative viability: 0.101
NCI-H596; first compound 0.01 µM
  relative viability: 0.834
NCI-H596; first compound 0.03162 µM
  relative viability: 0.939
NCI-H596; first compound 0.1 µM
  relative viability: 0.921
NCI-H596; first compound 0.3162 µM
  relative viability: 0.865
NCI-H596; first compound 1 µM
  relative viability: 1.03
NCI-H650; first compound 0.03162 µM
  relative viability: 0.763
NCI-H650; first compound 0.1 µM
  relative viability: 0.701
NCI-H650; first compound 0.3162 µM
  relative viability: 0.803
NCI-H650; first compound 1 µM
  relative viability: 0.704
NCI-H661; first compound 0.01 µM
  relative viability: 0.367
NCI-H661; first compound 0.03162 µM
  relative viability: 0.356
NCI-H661; first compound 0.1 µM
  relative viability: 0.335
NCI-H661; first compound 0.3162 µM
  relative viability: 0.36
NCI-H661; first compound 1 µM
  relative viability: 0.362
NCI-H838; first compound 0.01 µM
  relative viability: 0.246
NCI-H838; first compound 0.03162 µM
  relative viability: 0.273
NCI-H838; first compound 0.1 µM
  relative viability: 0.27
NCI-H838; first compound 0.3162 µM
  relative viability: 0.298
NCI-H838; first compound 1 µM
  relative viability: 0.237
PC-3 [JPC-3]; first compound 0.01 µM
  relative viability: 0.855
PC-3 [JPC-3]; first compound 0.03162 µM
  relative viability: 0.884
PC-3 [JPC-3]; first compound 0.1 µM
  relative viability: 0.879
PC-3 [JPC-3]; first compound 0.3162 µM
  relative viability: 0.842
PC-3 [JPC-3]; first compound 1 µM
  relative viability: 0.852
SK-MES-1; first compound 0.01 µM
  relative viability: 0.964
SK-MES-1; first compound 0.03162 µM
  relative viability: 0.935
SK-MES-1; first compound 0.1 µM
  relative viability: 1.05
SK-MES-1; first compound 0.3162 µM
  relative viability: 0.897
SK-MES-1; first compound 1 µM
  relative viability: 0.875
